Patent US20220324835A1 (Nurix Therapeutics, Inc., priority 2018, published 2022)

Assays:
[1] = molecular target: T1, Cbl-b (Homo sapiens, UniProt Q13191); experiment: Cbl-b activity assay (Cbl-b inhibition assay), TR-FRET of Cbl-b interaction with UbcH5B-Ub; type: biochemical; conditions: assay buffer with 100 mM NaCl, 60 nM Src kinase; read-out: Cbl-b activity IC50
How it was run: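 UbcH5B (C85K) conjugated to N-terminally Bodipy-Fluorescein-labeled ubiquitin served as the fluorescent partner. After compound preincubation, Src kinase (60 nM) with 1 mM ATP and 5 mM MgCl2 (final) was added for 1.5 h, followed by a further 1 h incubation. Some values were obtained with 50 mM NaCl and 30 nM Src.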

[2] = molecular target: Cbl-b (residues 36-427) (Homo sapiens, UniProt Q13191); experiment: Cbl-b binding assay (SPR, Biacore T200); conditions: 20° C., 1:1 binding model
How it was run: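 Steps: capture protein on NeutrAvidin surface; inject compound dilutions (8 or 10 points from 100 or 50 μM) 50 s; allow 90-180 s dissociation; regenerate 20 s with 0.3 M NaCl. Runs at 20° C in HEPES pH 7.5/100 mM NaCl/2% DMSO; 1:1 fitting.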

[3] = molecular target: T1, Cbl-b; experiment: Cbl-b inhibition assay (Cbl-b activity assay, FRET, Biological Example 1; 100 mM NaCl, 60 nM Src kinase); type: biochemical; conditions: upper bound stated in text lists; read-out: IC50 values in the Cbl-b inhibition assay of Biological Example 1
How it was run: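 FRET read-out: loss of signal marks inhibition. Mix = biotin-Avi-Cbl-b (N-term), Src kinase, UbcH5B-Ub(Bodipy-FL, irreversible conjugate), streptavidin-Tb, assay buffer.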

Cbl-b (residues 36-427), sequence (Q13191 36-427): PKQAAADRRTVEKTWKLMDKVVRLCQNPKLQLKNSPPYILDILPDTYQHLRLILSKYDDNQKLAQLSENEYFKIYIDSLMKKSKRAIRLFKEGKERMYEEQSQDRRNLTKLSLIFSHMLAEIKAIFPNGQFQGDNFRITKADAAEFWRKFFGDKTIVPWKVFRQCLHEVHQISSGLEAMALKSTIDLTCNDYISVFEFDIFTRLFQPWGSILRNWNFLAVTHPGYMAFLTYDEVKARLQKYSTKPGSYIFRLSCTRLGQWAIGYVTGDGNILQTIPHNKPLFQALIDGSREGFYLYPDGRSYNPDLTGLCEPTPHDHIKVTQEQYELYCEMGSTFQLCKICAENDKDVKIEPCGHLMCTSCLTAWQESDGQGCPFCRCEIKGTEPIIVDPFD
T1 sequence (Q13191 36-427): as above

Row | Structure (SMILES) | IC50 [1] | Kd [2] | IC50 [3]
1 | C[C@H](Cc1nncn1C)c1cccc(NC(=O)c2cc(C(=O)N3CCC(O)C3(C)C)ccn2)c1 (stereo partly drawn) [Compound 231, 4-(3-hydroxy-2,2-dimethylpyrrolidine-1-carbonyl)-N-(3-((R)-1-(4-methyl-4H-1,2,4-triazol-3-yl)propan-2-yl)phenyl)picolinamide] | 1 to 3 µM | 0.1 to 0.3 µM | ≤ 10 µM
2 | C[C@H](Cc1nncn1C)c1cccc(NC(=O)c2cc(C(=O)N3CCC4(COC4)C3)ccn2)c1 [Compound 233, N-[3-[(2R)-1-(4-methyl-4H-1,2,4-triazol-3-yl)propan-2-yl]phenyl]-4-[2-oxa-6-azaspiro[3.4]octane-6-carbonyl]pyridine-2-carboxamide] | 3 to 10 µM | 3 to 10 µM | ≤ 10 µM
3 | C[C@H](Cc1nncn1C)c1cccc(NC(=O)c2cc(C(=O)N3C[C@@H]4[C@@H](O)[C@@H]4C3)ccn2)c1 [Compound 234, 4-[(1R,5S,6R)-6-hydroxy-3-azabicyclo[3.1.0]hexane-3-carbonyl]-N-[3-[(2R)-1-(4-methyl-4H-1,2,4-triazol-3-yl)propan-2-yl]phenyl]pyridine-2-carboxamide] | 1 to 3 µM | 1 to 3 µM | ≤ 10 µM
4 | C[C@H](Cc1nncn1C)c1cccc(NC(=O)c2cc(C(=O)N3C[C@H](O)[C@@H](F)C3)ccn2)c1 [Compound 235, 4-[(3S,4S)-3-fluoro-4-hydroxypyrrolidine-1-carbonyl]-N-[3-[(2R)-1-(4-methyl-4H-1,2,4-triazol-3-yl)propan-2-yl]phenyl]pyridine-2-carboxamide] | 1 to 3 µM | 3 to 10 µM | ≤ 10 µM
5 | C[C@H](Cc1nncn1C)c1cccc(NC(=O)c2cc(C(=O)N3CC[C@H](C#N)C3)ccn2)c1 [Compound 236, 4-[(3S)-3-cyanopyrrolidine-1-carbonyl]-N-[3-[(2R)-1-(4-methyl-4H-1,2,4-triazol-3-yl)propan-2-yl]phenyl]pyridine-2-carboxamide] | 1 to 3 µM | 1 to 3 µM | ≤ 10 µM
6 | C[C@H](Cc1nncn1C)c1cccc(NC(=O)c2cc(C(=O)N3CC[C@@H](C#N)C3)ccn2)c1 [Compound 238, 4-((R)-3-cyanopyrrolidine-1-carbonyl)-N-(3-((R)-1-(4-methyl-4H-1,2,4-triazol-3-yl)propan-2-yl)phenyl)picolinamide] | 1 to 3 µM | 1 to 3 µM | ≤ 10 µM
7 | C[C@H](Cc1nncn1C)c1cccc(NC(=O)c2cc(C(=O)N3CC(O)C(C)(C)C3)ccn2)c1 (stereo partly drawn) [Compound 239, 4-(4-hydroxy-3,3-dimethylpyrrolidine-1-carbonyl)-N-(3-((R)-1-(4-methyl-4H-1,2,4-triazol-3-yl)propan-2-yl)phenyl)picolinamide] | 1 to 3 µM | 0.1 to 0.3 µM | ≤ 10 µM
8 | CC(O)C1CN(C(=O)c2ccnc(C(=O)Nc3cccc([C@H](C)Cc4nncn4C)c3)c2)C1 (stereo partly drawn) [Compound 241, 4-(3-(1-hydroxyethyl)azetidine-1-carbonyl)-N-(3-((R)-1-(4-methyl-4H-1,2,4-triazol-3-yl)propan-2-yl)phenyl)picolinamide] | 3 to 10 µM | < 0.1 µM | ≤ 10 µM
9 | C[C@H](Cc1nncn1C)c1cccc(NC(=O)c2cc(C(=O)N3CCNCC3)ccn2)c1 [Compound 242, (R)-N-(3-(1-(4-methyl-4H-1,2,4-triazol-3-yl)propan-2-yl)phenyl)-4-(piperazine-1-carbonyl)picolinamide] | 3 to 10 µM | 3 to 10 µM | ≤ 10 µM
10 | CNCCNC(=O)c1ccnc(C(=O)Nc2cccc([C@H](C)Cc3nncn3C)c2)c1 [Compound 244, (R)-N2-(3-(1-(4-methyl-4H-1,2,4-triazol-3-yl)propan-2-yl)phenyl)-N4-(2-(methylamino)ethyl)pyridine-2,4-dicarboxamide] | 1 to 3 µM | 1 to 3 µM | ≤ 10 µM
11 | C[C@H](Cc1nncn1C)c1cccc(NC(=O)c2cc(C(=O)N3CCC(CO)C3)ccn2)c1 (stereo partly drawn) [Compound 245, 4-(3-(hydroxymethyl)pyrrolidine-1-carbonyl)-N-(3-((R)-1-(4-methyl-4H-1,2,4-triazol-3-yl)propan-2-yl)phenyl)picolinamide] | 1 to 3 µM | 3 to 10 µM | ≤ 10 µM
12 | C[C@H](Cc1nncn1C)c1cccc(NC(=O)c2cc(C(=O)N3C[C@@H](F)[C@@H](O)C3)ccn2)c1 [Compound 246, cis-4-(3-fluoro-4-hydroxypyrrolidine-1-carbonyl)-N-(3-((R)-1-(4-methyl-4H-1,2,4-triazol-3-yl)propan-2-yl)phenyl)picolinamide] | 1 to 3 µM | 1 to 3 µM | ≤ 10 µM
13 | C[C@H](Cc1nncn1C)c1cccc(NC(=O)c2cc(C(=O)N[C@@H]3CCNC3)ccn2)c1 [Compound 247, N2-[3-[(2R)-1-(4-methyl-4H-1,2,4-triazol-3-yl)propan-2-yl]phenyl]-N4-[(3R)-pyrrolidin-3-yl]pyridine-2,4-dicarboxamide] | 3 to 10 µM | 3 to 10 µM | ≤ 10 µM
14 | C[C@H](Cc1nncn1C)c1cccc(NC(=O)c2cc(C(=O)N[C@H]3CCNC3)ccn2)c1 [Compound 248, N2-(3-((R)-1-(4-methyl-4H-1,2,4-triazol-3-yl)propan-2-yl)phenyl)-N4-((s)-pyrrolidin-3-yl)pyridine-2,4-dicarboxamide] | 3 to 10 µM | 3 to 10 µM | ≤ 10 µM
15 | CN[C@@H]1CCN(C(=O)c2ccnc(C(=O)Nc3cccc([C@H](C)Cc4nncn4C)c3)c2)C1 [Compound 249, N-(3-((R)-1-(4-methyl-4H-1,2,4-triazol-3-yl)propan-2-yl)phenyl)-4-((R)-3-(methylamino)pyrrolidine-1-carbonyl)picolinamide] | 1 to 3 µM | 1 to 3 µM | ≤ 10 µM
16 | CN[C@H]1CCN(C(=O)c2ccnc(C(=O)Nc3cccc([C@H](C)Cc4nncn4C)c3)c2)C1 [Compound 250, N-[3-[(2R)-1-(4-methyl-4H-1,2,4-triazol-3-yl)propan-2-yl]phenyl]-4-[(3S)-3-(methylamino)pyrrolidine-1-carbonyl]pyridine-2-carboxamide] | 1 to 3 µM | 1 to 3 µM | ≤ 10 µM
17 | CC(Cc1nccn1C)c1cccc(NC(=O)c2cc(C(=O)N3CC[C@H](O)C3)ccn2)c1 (stereo partly drawn) [Compound 252, 4-((S)-3-hydroxypyrrolidine-1-carbonyl)-N-(3-(1-(1-methyl-s1H-imidazol-2-yl)propan-2-yl)phenyl)picolinamide] | 3 to 10 µM | 1 to 3 µM | ≤ 10 µM
18 | C[C@H](Cc1nccn1C)c1cccc(NC(=O)c2cc(C(=O)N3CC[C@H](O)C3)ccn2)c1 [Compound 252a, 4-((S)-3-hydroxypyrrolidine-1-carbonyl)-N-(3-((R)-1-(1-methyl-1H-imidazol-2-yl)propan-2-yl)phenyl)picolinamide] | 1 to 3 µM | 3 to 10 µM | ≤ 10 µM
19 | C[C@H](Cc1nccn1C)c1cccc(NC(=O)c2cc(C(=O)N3C[C@@H](O)C[C@H]3C)ccn2)c1 [Compound 253, 4-((2R,4S)-4-hydroxy-2-methylpyrrolidine-1-carbonyl)-N-(3-((R)-1-(1-methyl-1H-imidazol-2-yl)propan-2-yl)phenyl)picolinamide] | 3 to 10 µM | 3 to 10 µM | ≤ 10 µM
20 | C[C@H](Cc1nncn1C)c1cccc(NC(=O)c2cc(C(=O)N3CC[C@H](O)C3)ccc2F)c1 [Compound 254, 2-fluoro-5-((S)-3-hydroxypyrrolidine-1-carbonyl)-N-(3-((R)-1-(4-methyl-4H-1,2,4-triazol-3-yl)propan-2-yl)phenyl)benzamide] | 1 to 3 µM | 3 to 10 µM | ≤ 10 µM
21 | CC(C)c1nccc2c1CN(c1cccc([C@H](C)Cc3nncn3C)c1)C2=O [Compound 259, (R)-4-isopropyl-2-(3-(1-(4-methyl-4H-1,2,4-triazol-3-yl)propan-2-yl)phenyl)-2,3-dihydro-1H-pyrrolo[3,4-c]pyridin-1-one] | 0.301 to 1 µM | 1 to 3 µM | ≤ 1 µM
22 | C[C@H](Cc1ncn(C)n1)c1cccc(N2Cc3c(cccc3C(F)(F)F)C2=O)c1 [Compound 263, (R)-2-(3-(1-(1-methyl-1H-1,2,4-triazol-3-yl)propan-2-yl)phenyl)-4-(trifluoromethyl)isoindolin-1-one] | 3 to 10 µM | 3 to 10 µM | ≤ 10 µM
23 | C[C@H](Cc1ncnn1C)c1cccc(N2Cc3c(cccc3C(F)(F)F)C2=O)c1 [Compound 264, (R)-2-(3-(1-(2-methyl-2H-1,2,4-triazol-3-yl)propan-2-yl)phenyl)-4-(trifluoromethyl)isoindolin-1-one] | 3 to 10 µM | > 10 µM | ≤ 10 µM
24 | C[C@H](Cc1nnco1)c1cccc(N2Cc3c(cccc3C(F)(F)F)C2=O)c1 [Compound 266, (R)-2-(3-(1-(1,3,4-oxadiazol-2-yl)propan-2-yl)phenyl)-4-(trifluoromethyl)isoindolin-1-one] | 3 to 10 µM | > 10 µM | ≤ 10 µM
25 | C[C@H](Cc1nccn1C)c1cccc(N2Cc3c(cccc3C(F)(F)F)C2=O)c1 [Compound 267a, (R)-2-(3-(1-(1-methyl-1H-imidazol-2-yl)propan-2-yl)phenyl)-4-(trifluoromethyl)isoindolin-1-one] | 1 to 3 µM | 3 to 10 µM | ≤ 10 µM
